Measured values taken from the supplement of paper PMC10307832.

Assays:
Assay in all cases: relative viability (nuclei count vs DMSO), 5 days (fraction); higher = more cells survive
[1] = compound: CC1=CN=C(N=C1C2=CNC(=C2)C(=O)N[C@H](CO)C3=CC(=CC=C3)Cl)NC4=C(C=C(C=C4)F)Cl [VX-11e] + CC1(C)CCC(c2ccc(Cl)cc2)=C(CN2CCN(c3ccc(C(=O)NS(=O)(=O)c4ccc(N[C@H](CCN5CCOCC5)CSc5ccccc5)c(S(=O)(=O)C(F)(F)F)c4)cc3)CC2)C1 [Navitoclax] (partner 0.5 µM)
Summary of the method: (§1)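 Dosing by pin tool came one day after lung cancer cell lines were seeded in 1536-well plates, using either one drug or a fixed anchor-drug dose plus five library-drug doses (not always all listed) in √10 steps. After 5 days, nuclei were counted on 4× images. Relative viability is treated-well nuclei count divided by vehicle-well nuclei count, and values are medians of duplicate plates.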

[2] = compound: CC1=CN=C(N=C1C2=CNC(=C2)C(=O)N[C@H](CO)C3=CC(=CC=C3)Cl)NC4=C(C=C(C=C4)F)Cl [VX-11e] + Cc1nc(Nc2ncc(C(=O)Nc3c(C)cccc3Cl)s2)cc(N2CCN(CCO)CC2)n1 [Dasatinib] (partner 0.075 µM)
Summary of the method: as §1

[3] = compound: CC1=CN=C(N=C1C2=CNC(=C2)C(=O)N[C@H](CO)C3=CC(=CC=C3)Cl)NC4=C(C=C(C=C4)F)Cl [VX-11e] + C[C@@H](Oc1cc(-c2cnn(C3CCNCC3)c2)cnc1N)c1c(Cl)ccc(F)c1Cl [Crizotinib] (partner 1 µM)
Summary of the method: as §1

[4] = compound: CC1=CN=C(N=C1C2=CNC(=C2)C(=O)N[C@H](CO)C3=CC(=CC=C3)Cl)NC4=C(C=C(C=C4)F)Cl [VX-11e] + O=C(CCCCCCC(=O)Nc1ccccc1)NO [Vorinostat] (partner 1 µM)
Summary of the method: as §1

Cell Line	relative viability ([1]; first compound 0.04 µM)	relative viability ([1]; first compound 0.1265 µM)	relative viability ([1]; first compound 0.4 µM)	relative viability ([1]; first compound 1.265 µM)	relative viability ([1]; first compound 4 µM)	relative viability ([2]; first compound 0.04 µM)	relative viability ([2]; first compound 0.1265 µM)	relative viability ([2]; first compound 0.4 µM)	relative viability ([2]; first compound 1.265 µM)	relative viability ([2]; first compound 4 µM)	relative viability ([3]; first compound 0.04 µM)	relative viability ([3]; first compound 0.1265 µM)	relative viability ([3]; first compound 0.4 µM)	relative viability ([3]; first compound 1.265 µM)	relative viability ([3]; first compound 4 µM)	relative viability ([4]; first compound 0.04 µM)	relative viability ([4]; first compound 0.1265 µM)	relative viability ([4]; first compound 0.4 µM)	relative viability ([4]; first compound 1.265 µM)	relative viability ([4]; first compound 4 µM)
HARA	1.16	1.1	1.13	1.13	0.968	0.306	0.2	0.273	0.248	0.157	1.05	0.792	1.04	0.833	0.813	0.618	0.455	0.535	0.392	0.257
H3255	0.526	0.451	0.657	0.614	0.496	0.37	0.38	0.538	0.281	0.347	0.898	0.716	0.608	0.877	0.887	0.828	0.765	0.776	0.79	0.708
UMC-11	0.288	0.263	0.295	0.324	0.327	0.44	0.42	0.439	0.587	0.464	0.699	0.785	0.574	0.511	0.662	0.374	0.337	0.447	0.297	0.315
NCI-H2170	0.576	0.528	0.496	0.583	0.404	0.339	0.664	0.461	0.341	0.445	1.18	1.04	1.23	1.03	1.1	0.835	0.75	0.462	0.67	0.778
EMC-BAC-2	1.22	1.11	0.994	0.927	0.833	0.303	0.291	0.437	0.509	0.407	0.808	0.708	0.739	0.618	0.671	0.404	0.45	1.07	0.511	0.315
NCI-H3122	0.969	1.02	0.989	0.995	0.597	0.7	0.637	–	0.476	0.224	0.302	0.288	0.275	0.35	0.226	0.85	0.885	0.684	0.987	0.589
EPLC-272H	1.09	1.02	1.01	0.82	0.668	0.328	0.269	–	0.334	0.2	0.711	0.877	0.85	0.676	0.627	0.311	0.381	0.477	0.23	0.275
LU99A	0.82	0.925	0.651	0.335	0.161	0.505	0.562	0.261	0.252	0.199	0.527	0.496	0.517	0.475	0.243	0.468	0.469	0.487	0.274	0.226
LXF-289	0.99	0.914	0.965	0.895	0.607	0.29	0.199	0.249	0.336	0.172	0.902	0.788	0.87	0.706	0.543	0.851	0.726	–	0.668	0.543
NCI-H1944	0.947	1.03	0.951	0.944	0.504	0.203	0.207	–	0.2	0.154	1.17	1.02	0.942	0.905	0.583	0.492	0.506	0.441	0.478	0.408
NCI-H647	1.08	1.09	0.904	0.663	0.522	0.23	0.215	0.0848	0.123	0.0992	1.1	0.916	1.01	0.608	0.523	0.501	0.655	0.637	0.496	0.339
201T	1.23	1.16	1.2	1.17	1.08	0.58	0.536	0.486	0.502	0.495	1.02	0.961	1.02	0.97	0.948	0.975	0.988	0.885	0.65	0.855
NCI-H358	–	–	–	–	–	0.17	0.125	0.0855	0.162	0.103	0.692	0.509	–	0.523	0.225	0.725	0.63	0.513	0.54	0.135
NCI-H441	0.668	0.469	–	0.905	0.556	0.685	0.814	–	0.502	0.318	0.711	0.72	–	0.857	0.555	0.835	0.786	–	0.753	0.569
NCI-H1734	0.787	0.796	0.685	0.652	0.245	0.418	0.396	0.536	0.415	0.256	0.67	0.584	0.652	0.606	0.296	0.71	0.779	0.593	0.449	0.341
NCI-H1792	0.614	0.639	0.672	0.646	0.588	0.894	0.679	0.572	0.729	0.326	0.956	0.954	0.915	0.982	0.52	–	–	–	–	–
NCI-H23	1	0.859	0.467	0.459	0.243	0.552	0.711	–	0.225	0.221	0.422	0.504	0.416	0.347	0.32	0.562	0.581	0.174	0.148	0.182
NCI-H2405	1.03	0.921	–	0.592	0.126	0.204	0.186	0.15	0.151	0.128	0.892	0.805	0.821	0.766	0.505	0.993	0.866	1.22	0.918	0.565
RERF-LC-KJ	0.849	1.1	0.977	0.946	0.619	0.872	0.758	0.867	0.71	0.59	0.899	0.834	0.881	0.863	0.753	0.7	0.653	0.586	0.594	0.623
PC-14	1.05	1.04	1.09	0.978	0.727	0.359	0.237	0.168	0.319	0.109	0.993	0.916	0.861	0.878	0.506	0.747	0.692	0.355	0.58	0.302

Cell Line	relative viability ([1]; first compound 0.04 µM)	relative viability ([1]; first compound 0.1265 µM)	relative viability ([1]; first compound 0.4 µM)	relative viability ([1]; first compound 1.265 µM)	relative viability ([1]; first compound 4 µM)	relative viability ([2]; first compound 0.04 µM)	relative viability ([2]; first compound 0.1265 µM)	relative viability ([2]; first compound 0.4 µM)	relative viability ([2]; first compound 1.265 µM)	relative viability ([2]; first compound 4 µM)	relative viability ([3]; first compound 0.04 µM)	relative viability ([3]; first compound 0.1265 µM)	relative viability ([3]; first compound 0.4 µM)	relative viability ([3]; first compound 1.265 µM)	relative viability ([3]; first compound 4 µM)	relative viability ([4]; first compound 0.04 µM)	relative viability ([4]; first compound 0.1265 µM)	relative viability ([4]; first compound 0.4 µM)	relative viability ([4]; first compound 1.265 µM)	relative viability ([4]; first compound 4 µM)
NCI-H661	–	–	–	–	–	0.863	0.799	0.784	0.684	0.352	–	0.974	1	1.16	0.934	0.784	0.798	0.718	0.794	0.747
EKVX	0.847	0.935	0.926	0.831	0.601	0.687	0.482	0.401	0.489	0.247	1.07	0.944	0.879	0.764	0.617	0.751	0.687	0.718	0.728	0.382
PC-3 [JPC-3]	0.786	0.803	0.682	0.831	0.743	0.904	0.903	0.886	1.16	0.883	0.993	0.963	0.93	1.07	0.845	0.752	0.708	1.01	0.646	0.755
NCI-H1355	0.92	0.891	0.945	0.695	0.333	0.523	0.669	0.334	0.43	0.321	1.1	0.993	1.09	0.875	0.479	0.472	0.617	0.591	0.52	0.345
NCI-H1395	1.16	0.999	0.832	1.06	0.659	0.448	0.383	0.346	0.398	0.376	–	–	–	–	–	0.573	0.683	–	0.661	0.479
NCI-H1563	–	–	–	–	–	0.417	0.47	0.506	0.411	0.449	0.861	0.799	0.969	0.91	0.642	–	–	–	–	–
NCI-H1648	–	–	–	–	–	–	–	–	–	–	–	–	–	–	–	–	0.317	0.639	0.31	0.291
LCLC-103H	–	–	–	–	–	0.45	0.435	0.545	0.446	0.444	1.01	1.09	0.968	0.882	0.852	0.807	0.68	0.673	0.46	0.66
Calu-6	0.994	0.786	0.737	0.219	0.109	–	–	–	–	–	0.829	0.839	0.861	0.396	0.145	–	–	–	–	–
SW 900	–	–	–	–	–	0.59	0.588	0.137	0.585	0.385	–	–	–	–	–	0.348	0.507	–	0.276	0.323
NCI-H1299	1.02	1.01	1.02	0.976	0.692	–	–	–	–	–	0.994	0.879	0.956	0.84	0.47	–	–	–	–	–
NCI-H2342	–	–	–	–	–	0.31	0.282	0.285	0.307	0.348	–	–	–	–	–	–	0.79	0.862	0.843	0.73
IA-LM	0.899	0.891	0.844	0.415	0.0436	–	–	–	–	–	0.931	0.961	0.697	0.271	0.116	1.07	0.814	0.941	0.668	0.302
NCI-H1793	–	0.526	–	0.382	0.152	0.197	0.292	–	0.326	0.287	–	–	–	–	–	–	0.618	–	0.569	0.257
NCI-H1703	1.12	1.21	1.24	1.29	0.744	–	–	–	–	–	0.985	0.727	–	0.589	0.582	–	–	–	–	–
HCC-44	0.92	0.883	1.22	1	0.732	–	–	–	–	–	0.879	0.809	0.833	0.753	0.453	1.15	1.15	1.12	1.03	0.831
ABC-1	–	–	–	–	–	0.72	0.551	0.468	0.561	0.497	1.24	1.07	1.06	0.892	1.09	0.934	–	1.22	0.986	1.15
NCI-H522	–	–	–	–	–	0.647	0.849	0.719	0.72	0.605	–	–	–	–	–	0.994	0.939	0.736	0.713	0.751
NCI-H650	–	–	–	–	–	0.418	0.467	0.425	0.414	0.398	–	0.538	0.711	–	0.478	0.33	0.435	0.63	0.608	0.533
